Source: patent US8716478B2, “Boron-containing small molecules” (Anacor Pharmaceuticals, Inc., priority 2010, dated 2014)

How the values were obtained:
Brugia malayi = Brugia malayi in vitro assay, adult female worms; conditions: 50 uM
Method: Adult female worms are shipped from TRS Labs Inc. (Nonglak Supakorndej, Lab Director, 295 Research Dr., Athens, Ga. 30605; 706-549-0764) via Fed Ex. Individual worms are shipped in 2 mls vials with RPMI on Mondays and arrive at the […] Center lab on Tuesday mornings. Individual worms are poured into each well (24-well tissue culture plates) to avoid handling worms since they are very delicate and easily broken. Transport media is removed and replaced with 0.5 mls of RPMI-1640 (25 mM HEPES, 2 g/L NaHCO3, Antibiotic/Antimycotic, 5% HI FBS). Worms are maintained in a 37° C. 5% CO2 incubator. Compounds are added directly to each duplicate well (5 ul of 5 mM for a final concentration of 50 uM). DMSO (5 ul) is used as a negative control and Ivermectin (Sigma) is used as a positive control at 100 uM/well and 20 uM/well. Adult filarial nematodes can shed/give birth to microfilarial worms (mf) during the course of the assay. Wells were reviewed for the presence of mf, and the viability of mf, by visual observation of the well on the last day of observation (Day 7). Plates are examined once a day for 4-7 days. […] If changes are observed, worms are more closely examined under a dissecting microscope.

[1] = Pharmacokinetics and oral bioavailability after IV and PO dosing; format: in vivo, female CD-1 mice; conditions: plasma
Method: The objective of this study was to evaluate the pharmacokinetics and oral bioavailability of PDE4 inhibitors following intravenous (IV) administration and oral (PO) doses in female CD-1 mice.
After dosing, blood samples were collected through 24 h, twice from each animal at specific times (3 mice/time point), into microcentrifuge tubes containing K2EDTA (anticoagulant), stored on wet ice and processed for plasma. The plasma samples were analyzed for concentrations of parent compound by LC/MS/MS using an internal standard/peak area method. Pharmacokinetic analysis of the mean plasma concentration-time profiles following IV and PO administration was performed.
[…] Dosing solutions for intravenous administration were prepared in 55% PEG300/25% PG/20% water. Oral dosing used a suspension prepared in 1% CMC in water with 0.1% Tween 80.
After dosing, blood samples were collected through 24 h, twice from each animal via retro-orbital bleed (˜0.1 mL, 1st time point) or cardiac puncture (˜0.6 mL, 2nd time point) at specific times (3 mice/time point), into microcentrifuge tubes containing K2EDTA (anticoagulant) and stored on wet ice prior to processing.
Plasma was prepared by centrifugation of blood samples for 6 min at approximately 2000×g or 6000 rpm at 4° C. All processed plasma samples (˜50 μL and 300 μL) were transferred to analysis tubes, placed on dry ice immediately and later stored at −80° C. until analysis for concentrations of experimental compound by LC/MS/MS.
Mouse IV clearance, Mouse Oral AUC and Oral Bioavailability are provided below. 6-(1-Hydroxy-1,3-dihydrobenzo[c][1,2]oxaborol-5-yloxy)-2-(2-isopropoxyethoxy)nicotinonitrile (D140) and 6-(1-hydroxy-1,3-dihydrobenzo[c][1,2]oxaborol-5-yloxy)-2-(4-oxopentyloxy)nicotinonitrile (D141) are disclosed in U.S. patent application Ser. No. 12/399,015, filed Mar. 5, 2009.

human PDE4 enzyme = experiment: Phosphodiesterase 4 (PDE4) inhibition, semi-purified enzyme from human U937 cells; format: biochemical; conditions: 1 μM cAMP, 20 minutes at 25° C.; read-out: PDE4 IC50
[2] = test system: TNF-α in peripheral blood mononuclear cells (PBMCs); experiment: TNF-α inhibition in LPS-stimulated peripheral blood mononuclear cells; format: cell-based; conditions: PBMC; PBMCs, LPS 1 μg/mL for 24 h; read-out: Proinflammatory TNF-α IC50
Procedure, shortened: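 Pooled human PBMCs (10-20 donors), 5×10^5 cells/well in RPMI with 10% FCS, <2% DMSO final, stimulated with LPS at 1 μg/mL for 24 h with compound. TNF-α in supernatant measured by cytometric bead array; IC50 by four-parameter logistic fit.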

TNF-α = experiment: In vivo TNF-α release in LPS treated mice; design: species or system Swiss Webster mice
Method: In vivo TNF-α release was measured in Swiss Webster mice, 10/group. Animals were dosed via oral gavage with drug 1% CMC suspension. Thirty minutes later LPS, 1.5 mg/kg was administered by intraperitoneal injection. Ninety minutes later animals were sacrificed, blood was collected by exsangination and serum prepared for analysis. TNF-α concentration was assessed by ELISA, non-drug treated animals had TNF-α levels 1000-3000 pg/mL. 6-(1-Hydroxy-1,3-dihydrobenzo[c][1,2]oxaborol-5-yloxy)-2-(2-isopropoxyethoxy)nicotinonitrile (D140) and 6-(1-hydroxy-1,3-dihydrobenzo[c][1,2]oxaborol-5-yloxy)-2-(4-oxopentyloxy)nicotinonitrile (D141) are disclosed in U.S. patent application Ser. No. 12/399,015, filed Mar. 5, 2009.

Row | Structure (SMILES) | worm activity score / phenotype, Day 3 (Brugia malayi; trial two) | bioavailability ([1]; female, CD-1, mouse, po) | AUC ([1]; female, CD-1, mouse, 10 mg/kg oral suspension dose) | clearance ([1]; mouse, 5 mg/kg, female CD-1 mice, intravenous) | IC50 (human PDE4 enzyme) | worm activity score / phenotype, Day 3 (Brugia malayi; trial one) | IC50 [2] | % Inhibition of TNFa Blood Levels in LPS Treated Mice (TNF-α; Oral Dose 0.03 mg/kg) | % Inhibition of TNFa Blood Levels in LPS Treated Mice (TNF-α; Oral Dose 0.1 mg/kg) | % Inhibition of TNFa Blood Levels in LPS Treated Mice (TNF-α; Oral Dose 0.3 mg/kg) | % Inhibition of TNFa Blood Levels in LPS Treated Mice (TNF-α; Oral Dose 1 mg/kg) | % Inhibition of TNFa Blood Levels in LPS Treated Mice (TNF-α; Oral Dose 1.5 mg/kg) | % Inhibition of TNFa Blood Levels in LPS Treated Mice (TNF-α; Oral Dose 3 mg/kg) | % Inhibition of TNFa Blood Levels in LPS Treated Mice (TNF-α; Oral Dose 5 mg/kg) | % Inhibition of TNFa Blood Levels in LPS Treated Mice (TNF-α; Oral Dose 10 mg/kg) | % Inhibition of TNFa Blood Levels in LPS Treated Mice (TNF-α; Oral Dose 15 mg/kg) | % Inhibition of TNFa Blood Levels in LPS Treated Mice (TNF-α; Oral Dose 30 mg/kg)
1 | CC(C)OCCOc1nc(Oc2ccc3c(c2)COB3O)ccc1C#N [6-(1-hydroxy-1,3-dihydrobenzo[c][1,2]oxaborol-5-yloxy)-2-(4-isopropoxy-ethoxy)nicotinonitrile] | 4 (highly active (controls)) |  |  |  |  |  |  |  |  |  |  |  |  |  |  |  | 
2 | CC(=O)CCCOc1nc(Oc2ccc3c(c2)COB3O)c(Cl)cc1C#N [Compound D231, 5-Chloro-6-(1-hydroxy-1,3-dihydrobenzo[c][1,2]oxaborol-5-yloxy)-2-(4-oxopentyloxy)nicotinonitrile] | 2 to 3 | 96% | 8500 ng·h/mL | 25 mL/min/kg | 0.8 nM | 2 to 3 | 0.44 nM | 0% | 22% | 33.6% | 69.5% | 58% | 75.6% | 85.5% | 85.6% | 81.3% | 97.3%
